In patent US11225480B2, “Malic enzyme inhibitors” (SUN PHARMA ADVANCED RESEARCH COMPANY LTD, priority 2019, dated 2022) one finds inhibition data, which are given here for 25 molecules.

The structures appear in SMILES notation. Counter-ions that a name gives are not always drawn. Where only a bound is given, the exact number is not on record here.

The target in one assay is T1, human ME1 enzyme (Homo sapiens, UniProt P48163).
T1 sequence (P48163 1-572): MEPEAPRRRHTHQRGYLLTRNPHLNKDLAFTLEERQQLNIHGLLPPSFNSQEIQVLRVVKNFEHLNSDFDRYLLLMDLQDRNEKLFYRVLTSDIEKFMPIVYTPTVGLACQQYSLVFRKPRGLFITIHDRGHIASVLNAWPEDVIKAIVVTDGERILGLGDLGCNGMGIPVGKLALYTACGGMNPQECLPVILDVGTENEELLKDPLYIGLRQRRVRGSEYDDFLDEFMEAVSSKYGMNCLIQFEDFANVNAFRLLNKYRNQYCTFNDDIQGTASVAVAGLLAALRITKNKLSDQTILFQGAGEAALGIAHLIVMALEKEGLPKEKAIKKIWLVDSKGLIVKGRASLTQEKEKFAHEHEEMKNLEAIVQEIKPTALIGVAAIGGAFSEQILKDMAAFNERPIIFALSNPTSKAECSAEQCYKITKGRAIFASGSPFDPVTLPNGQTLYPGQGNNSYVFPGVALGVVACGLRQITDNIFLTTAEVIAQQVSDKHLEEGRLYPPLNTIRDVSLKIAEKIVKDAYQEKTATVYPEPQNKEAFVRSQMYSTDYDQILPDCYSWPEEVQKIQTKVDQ
The experiment in a line: ME1 inhibition assay (diaphorase/resazurin coupled fluorescence). The format is biochemical. As to conditions: 10 μM compound concentration; read-out: Malic Enzyme 1 % inhibition (10 μM). Here is the method:
ME1 catalyzes the oxidative decarboxylation of malate to pyruvate with conversion of the co-factor β-NADP+ to β-NADPH. In the fluorescence assay, a coupled reaction is set up where in an enzyme, Diaphorase, utilizes NADPH generated by ME1, to convert the dye resazurin to a fluorescent molecule resorufin. Resorufin has a characteristic fluorescence with excitation/emission at 540/600 nm (SLAS Discov., 2017 April 1:2472555217706649).
The enzyme activity inhibition assay is set up in a 200 μL final reaction volume in a 96-well plate. As per the experimental design, 2 μL of the compounds at 100× the desired concentration (10 μM) in DMSO were added to the respective wells with 178 μL of assay buffer (50 mM Tris-HCl pH 7.5, 10 mM MnCl2, 2 mM L-malate, 10 μM Resazurin and 0.01 mg/ml Diapharose). The 96-well plate was incubated on a plate shaker at room temperature for 15 minutes protected from light. The well contents were gently mixed by adding 10 μL of 20 nM human ME1 enzyme to the wells and the plate was incubated on a shaker at room temperature for 5 minutes protected from light. Suitable ‘enzyme only’ and ‘no enzyme’ controls were included in the experiment. The enzymatic reaction was started by adding 10 μL of 0.3 mM D-NADP+. The reaction was gently mixed and the plate was initially left on a shaker at room temperature for −7 minutes protected from light. Later, the plate was incubated without shaking at room temperature for 2 hours. At the end of 2 hours, the fluorescence of the wells was measured at excitation 540 nm and emission 600 nm. The % enzyme activity of the compounds is obtained by normalizing the data with enzyme only (100%) and no enzyme controls (0%) using GraphPad Prism software 7.04.
(Alamar Blue is a resazurin reagent that responds to reducing activity.)
By inhibition is commonly meant the share of the control response that was lost under treatment. Regarding `COc1cc(CC(=O)N2CCN(c3ccc(O)cc3)CC2)cc(OC)c1OC` [I.3, 1-[4-(4-Hydroxy-phenyl)-piperazin-1-yl]-2-(3,4,5-trimethoxy-phenyl)-ethanone], the inhibition at 10 µM was greater than 90%.

In another assay the target is T2, human ME3 enzyme (Homo sapiens, UniProt Q16798).
T2 sequence (Q16798 1-604): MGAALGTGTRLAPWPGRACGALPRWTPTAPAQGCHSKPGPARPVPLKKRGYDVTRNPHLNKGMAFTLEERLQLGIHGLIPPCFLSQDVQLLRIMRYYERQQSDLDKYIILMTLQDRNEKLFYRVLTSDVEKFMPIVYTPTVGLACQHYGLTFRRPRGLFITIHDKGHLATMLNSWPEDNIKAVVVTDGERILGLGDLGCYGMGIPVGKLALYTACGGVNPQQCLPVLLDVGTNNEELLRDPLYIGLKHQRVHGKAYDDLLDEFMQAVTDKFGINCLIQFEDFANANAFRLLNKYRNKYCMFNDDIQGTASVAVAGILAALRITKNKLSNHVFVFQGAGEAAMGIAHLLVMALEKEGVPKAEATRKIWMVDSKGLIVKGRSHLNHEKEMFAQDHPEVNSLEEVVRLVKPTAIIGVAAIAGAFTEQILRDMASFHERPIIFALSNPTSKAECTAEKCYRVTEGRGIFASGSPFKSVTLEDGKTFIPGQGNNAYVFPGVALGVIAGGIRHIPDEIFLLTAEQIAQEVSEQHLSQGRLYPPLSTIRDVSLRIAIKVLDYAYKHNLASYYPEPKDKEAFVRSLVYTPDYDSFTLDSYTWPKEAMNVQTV
The experiment in a line: ME3 inhibition assay (diaphorase/resazurin coupled fluorescence). The format is biochemical. As to conditions: 10 μM compound concentration; read-out: Malic Enzyme 3 % inhibition (10 μM). Here is the method:
ME3 catalyzes the oxidative decarboxylation of malate to pyruvate with conversion of the co-factor β-NADP+ to NADPH. In the fluorescence assay, a coupled reaction is set up wherein an enzyme, Diaphorase, utilizes NADPH generated by ME3, to convert the dye resazurin to a fluorescent molecule resorufin.
The enzyme activity inhibition assay is set up in a 200 μL final reaction volume in a 96-well plate. As per the experimental design, 2 μL of the test compounds at 100× the desired concentration (10 μM) in DMSO were added to the respective wells with 178 μL of assay buffer (50 mM Tris-HCl pH 7.5, 10 mM MnCl2, 3 mM L-malate, 50 μM Resazurin and 0.025 mg/ml Diapharose). The 96-well plate was incubated on a plate shaker at room temperature for 15 minutes protected from light. The well contents were gently mixed by adding 10 μL of 20 nM human ME3 enzyme to the wells and the plate was incubated on a shaker at room temperature for 5 minutes protected from light. Suitable enzyme only and no enzyme controls were included in the experiment. The enzyme reaction was started by adding 10 μL of 1 mM D-NADP+. The reaction was gently mixed and the plate was initially left on a shaker at room temperature for ˜7 minutes protected from light. Later, the plate was incubated without shaking at room temperature for 3 hours. At the end of 3 hours, the fluorescence of the wells was measured at excitation 540 nm and emission 600 nm.
Consider `COc1cc(CC(=O)N2CCN(c3ccc(O)cc3)CC2)cc(OC)c1OC` [I.3, 1-[4-(4-Hydroxy-phenyl)-piperazin-1-yl]-2-(3,4,5-trimethoxy-phenyl)-ethanone], for which the inhibition at 10 µM is greater than 90%.

Consider `CN(CC(=O)N1CCN(c2ccc(O)cn2)CC1)S(=O)(=O)c1cccc2cccnc12` [I.89, quinoline-8-sulfonic acid {2-[4-(5-hydroxypyridin-2-yl)-piperazin-1-yl]-2-oxo-ethyl}-methylamide], for which the inhibition at 10 µM was greater than 90%.

Take `CC(C)Cc1ccc(CCC(=O)N2CCN(c3ccc(O)cn3)CC2)cc1` [I.90, 1-[4-(5-Hydroxy-pyridin-2-yl)-piperazin-1-yl]-3-(4-isobutyl-phenyl)-propan-1-one]: the inhibition at 10 µM is greater than 90%.

For the molecule `O=C(Cc1ccc(F)cc1F)N1CCN(c2ccc(O)cn2)CC1` [I.91, 2-(2,4-Difluoro-phenyl)-1-[4-(5-hydroxy-pyridine-2-yl)-piperazin-1-yl]-ethanone], the inhibition at 10 µM is greater than 90%.

For the molecule `O=C(CSc1ccc([N+](=O)[O-])cn1)N1CCN(c2ccc(O)cn2)CC1` [I.97, 1-[4-(5-hydroxy-pyridin-2-yl)-piperazin-1-yl]-2-(5-nitro-pyridin-2-ylsulfanyl)-ethanone], the inhibition at 10 µM was greater than 90%.

Consider `O=C(CCC12CC3CC(CC(C3)C1)C2)N1CCN(c2ccc(O)cn2)CC1` [I.98, 3-(1-Adamantyl)-1-[4-(5-hydroxy-2-pyridyl)-piperazin-1-yl]propan-1-one], for which the inhibition at 10 µM is greater than 90%.

As for `O=C(C(c1ccccc1)C1CCCCC1)N1CCN(c2ccc(O)cn2)CC1` (centres unmarked) [I.99, 2-Cyclo-hexyl-1-[4-(5-hydroxy-2-pyridyl)-piperazin-1-yl]-2-phenyl-ethanone], the inhibition at 10 µM was greater than 90%.

In the case of `O=C(CCc1ccc(O)cc1)N1CCN(c2ccc(O)cn2)CC1` [I.100, 3-(4-Hydroxy-phenyl)-1-[4-(5-hydroxy-pyridin-2-yl)-piperazin-1-yl]-propan-1-one], the inhibition at 10 µM was greater than 90%.

For the molecule `COc1ccc(CCC(=O)N2CCN(c3ccc(O)cn3)CC2)cc1` [I.101, 3-(4-Methoxy-phenyl)-1-[4-(5-hydroxy-pyridin-2-yl)-piperazin-1-yl]-propan-1-one hydrochloride], the inhibition at 10 µM was greater than 90%.

For the molecule `O=C(CCc1ccccc1Br)N1CCN(c2ccc(O)cn2)CC1` [I.102, 3-(2-Bromo-phenyl)-1-[4-(5-hydroxy-pyridin-2-yl)-piperazin-1-yl]-propan-1-one], the inhibition at 10 µM was greater than 90%.

Take `O=C(CCc1ccc(Br)cc1)N1CCN(c2ccc(O)cn2)CC1` [I.103, 3-(4-Bromo-phenyl)-1-[4-(5-hydroxy-pyridin-2-yl)-piperazin-1-yl]-propan-1-one]: the inhibition at 10 µM is greater than 90%.

Take `COC(=O)C1C2CCC(O2)C1C(=O)N1CCN(c2ccc(O)cn2)CC1` (centres unmarked) [I.104, 3-[4-(5-Hydroxy-pyridin-2-yl)-piperazine-1-carbonyl]-7-oxa-bicyclo-[2.2.1]heptane-2-carboxylic acid methyl ester]: the inhibition at 10 µM lay within 70 to 89%.

Turning to `O=C(O)C1C2CCC(O2)C1C(=O)N1CCN(c2ccc(O)cn2)CC1` (centres unmarked) [I.105, 3-[4-(5-Hydroxy-pyridin-2-yl)-piperazine-1-carbonyl]-7-oxa-bicyclo-[2.2.1]heptane-2-carboxylic acid], the inhibition at 10 µM was greater than 90%.

On to `O=C(C(=O)N1CCN(c2ccc(O)cn2)CC1)c1c[nH]c2ccccc12` [I.106, 1-[4-(5-Hydroxy-pyridin-2-yl)-piperazin-1-yl]-2-(1H-indol-3-yl)-ethane-1,2-dione], for which the inhibition at 10 µM is greater than 90%.

On to `CN(C)c1ccc(CCC(=O)N2CCN(c3ccc(O)cn3)CC2)cc1` [I.108, 3-(4-Dimethyl-aminophenyl)-[4-(5-hydroxy-pyridin-2-yl)-piperazin-1-yl]-propan-1-one], for which the inhibition at 10 µM is greater than 90%.

For `COc1ccccc1CCC(=O)N1CCN(c2ccc(O)cn2)CC1` [I.109, 1-[4-(5-Hydroxy-pyridin-2-yl)-piperazin-1-yl]-3-(2-methoxy-phenyl)-propan-1-one], the inhibition at 10 µM is greater than 90%.

On to `Cc1ccc(CCC(=O)N2CCN(c3ccc(O)cn3)CC2)cc1` [I.110, 1-[4-(5-Hydroxy-pyridin-2-yl)-piperazin-1-yl]-3-p-tolyl-propan-1-one], for which the inhibition at 10 µM was greater than 90%.

`O=C(O)c1ccccc1C(=O)N1CCN(c2ccc(O)cn2)CC1` [I.111, 2-[4-(5-Hydroxy-pyridin-2-yl)-piperazine-1-carbonyl]-benzoic acid]: the inhibition at 10 µM was greater than 90%.

On to `O=C(CCC(c1ccccc1)c1ccccc1)N1CCN(c2ccc(O)cn2)CC1` [I.112, 1-[4-(5-Hydroxy-2-pyridyl)-piperazin-1-yl]-4,4-diphenyl-butan-1-one], for which the inhibition at 10 µM is greater than 90%.

As for `O=C(c1cccc(-c2cccc3[nH]ccc23)c1)N1CCN(c2ccc(O)cn2)CC1` [I.113, [4-(5-hydroxypyridin-2-yl)-piperazin-1-yl]-[3-(1H-indol-4-yl)phenyl]methanone], the inhibition at 10 µM is greater than 90%.

Take `COCCOc1ccc(CCC(=O)N2CCN(c3ccc(O)cn3)CC2)cc1` [I.114, 1-[4-(5-Hydroxy-pyridin-2-yl)-piperazin-1-yl]-3-[4-(2-methoxy-ethoxy)-phenyl]-propan-1-one dihydro-chloride]: the inhibition at 10 µM is greater than 90%.

With `O=C(C(c1ccccc1)N1CCOCC1)N1CCN(c2ccc(O)cn2)CC1` (centres unmarked) [I.117, 1-[4-(5-hydroxy-2-pyridyl)piperazin-1-yl]-2-morpholino-2-phenyl-ethanone], the inhibition at 10 µM was greater than 90%.

On to `O=C(C1CCCCC1)N1CCN(c2ccc(O)cn2)CC1` [I.118, Cyclohexyl-[4-(5-hydroxy-2-pyridyl)-piperazin-1-yl]methanone], for which the inhibition at 10 µM was greater than 90%.

For the molecule `O=C(C1CC1)N1CCN(c2ccc(O)cn2)CC1` [I.119, Cyclopropyl-[4-(5-hydroxy-2-pyridyl)-piperazin-1-yl]methanone], the inhibition at 10 µM was greater than 90%.

`O=C(/C=C/C1CCCCC1)N1CCN(c2ccc(O)cn2)CC1` [I.120, (E)-3-Cyclo-hexyl-1-[4-(5-hydroxy-2-pyridyl)-piperazin-1-yl]prop-2-en-1-one]: the inhibition at 10 µM was greater than 90%.
